Test system: LG0703-F948-PDC complex spheroid viability
Assay: Anticancer human tumor LG0703-F948-PDC patient-derived lung adenocarcinoma cell line growth inhibition [RAS]
Conditions: for IC50: curve of first compound; for viability, T/C: stronger effect = lower value
Excerpt: RAS pathway inhibitors in Combinations in Complex Spheroids
A high-throughput screen of multi-cell type tumor spheroids was designed to identify active combinations of RAS pathway inhibitors and targeted small molecules. Complex spheroids include a stromal component modeled by human endothelial cells (HUVEC) and fibroblasts modeled by human mesenchymal stem cells (MSCs). The concentration ranges selected for each drug and investigational agent were based upon clinically achievable concentrations if the clinical Cmax of the agent was known.
Compounds. The drugs and investigational agents: abemaciclib (NSC768073), cobimetinib (NSC768068), divarasib (GDC6063, NSC841802), docetaxel (NSC628503), GDC-1971 (RLY-1971, NSC841576), gemcitabine (NSC613327), inavolisib (NSC800729), ipatasertib (NSC767898), KB-0742 (NSC834161), MRTX-1133 (NSC836407), osimertinib (NSC779217), RMC-4630 (NSC839698), RMC-6236 (NSC851965), RMC-6291 (NSC852671), Ro-3306 (NSC812927), sapanisertib (NSC764658), SN-38 (NSC673596), staurosporine (NSC755774), SY5609 (NSC837396), and tovorafenib (DAY101, NSC766906), were obtained from the National Cancer Institute (NCI) Developmental Therapeutics Program Chemical Repository. The FDA-approved anticancer drug set is available from the NCI Developmental Therapeutics Program. […] The stock solutions were prepared in dimethyl sulfoxide (DMSO, Sigma-Aldrich, St. Louis, MO, cat. D2650) at 800-fold the tested concentration and stored at -70 degrees C prior to their use. All drugs and investigational agents were tested over a range starting from a high concentration at or near the clinical Cmax and decreasing in half-log increments. If the clinical Cmax for an agent had not been determined, the highest concentration tested was 10 microM.
Cell Culture. All cells were maintained in an incubator at 37 degrees C and 5% CO2 with 95% humidity. The PDC lines were cultured according to standard operating procedures established by the NCI PDMR. All PDCs were thawed and cultured in Matrigel-coated flasks prepared with a working solution of 1X Ham's F-12 nutrient mix, without supplementation (Invitrogen, Waltham, MA, cat. 11765054), 100 U/mL penicillin-streptomycin (Invitrogen, cat. 15140122), and 2.5% Matrigel (Corning Inc., Corning, NY, cat. 354248) for the first three passages. The 362531-283-R-J2-PDC and 782815-120-R-J1-PDC lines were cultured in 6C/Colon 1B media, which includes advanced DMEM/F-12 (Thermo Fisher Scientific, cat. 12634028), 10 mM HEPES (Thermo Fisher Scientific, cat. 15630080), 1X GlutaMAX supplement (Thermo Fisher Scientific, cat. 35050061), 0.1 mg/mL primocin (InvivoGen, San Diego, CA, cat. ant-pm-2), 10% defined fetal bovine serum, heat inactivated (HyClone Laboratories Inc., Logan, UT, cat. SH30070.03HI), 50% L-WRN conditioned media (ATCC, cat. CRL-3276), 1.25 mM N-Acetyl-L-cysteine (Sigma-Aldrich, cat. A9165), 10 mM nicotinamide (Sigma-Aldrich, cat. N0636), 1X B-27 supplement (Thermo Fisher Scientific, cat. 17504044), 1X N-2 supplement (Thermo Fisher Scientific, cat. 17502048), 50 ng/mL human EGF (Thermo Fisher Scientific, cat. PHG0311), and 10 microM Y-27632 dihydrochloride (Tocris Bioscience, cat. 1254). The K12877-001-R-J1-PDC line was cultured in 6I media, which includes all 6C/Colon 1B media plus 10 ng/mL human FGF-10 (PeproTech, cat. 100-26), 1 ng/mL human FGF-2 (PeproTech, cat. 100-18B), 1 µM prostaglandin E2 (Tocris Bioscience, cat. 2296), […] hydrocortisone (Sigma-Aldrich, cat. H4001), and […] bovine insulin (Sigma-Aldrich, cat. I6634). The K86415-001-R-J1-PDC line was cultured in 6D media, which includes all 6C/Colon 1B media components minus the L-WRN conditioned media. The 485176-168-R4-J1-PDC was cultured in PANC media, which includes all 6C/Colon 1B media plus 100 ng/mL human FGF-10 (PeproTech, cat. 100-26), 500 nM SB-431542 (Selleckchem, cat. S1067), and 10 nM gastrin (Tocris Bioscience, cat. 3006). […]

[1] = second compound 0.0316 µM, first compound 0.000949 µM
[2] = second compound 0.0316 µM, first compound 0.003 µM
[3] = second compound 0.0316 µM, first compound 0.00949 µM
[4] = second compound 0.0316 µM, first compound 0.03 µM
[5] = second compound 0.0316 µM, first compound 0.0949 µM
[6] = second compound 0.0316 µM, first compound 0.3 µM
[7] = second compound 0.1 µM, first compound 0.000949 µM
[8] = second compound 0.1 µM, first compound 0.003 µM
[9] = second compound 0.1 µM, first compound 0.00949 µM
[10] = second compound 0.1 µM, first compound 0.03 µM
[11] = second compound 0.1 µM, first compound 0.0949 µM
[12] = second compound 0.1 µM, first compound 0.3 µM
[13] = second compound 0.316 µM, first compound 0.000949 µM
[14] = second compound 0.316 µM, first compound 0.003 µM
[15] = second compound 0.316 µM, first compound 0.00949 µM
[16] = second compound 0.316 µM, first compound 0.03 µM
[17] = second compound 0.316 µM, first compound 0.0949 µM
[18] = second compound 0.316 µM, first compound 0.3 µM
[19] = second compound 1 µM, first compound 0.000949 µM
[20] = second compound 1 µM, first compound 0.003 µM
[21] = second compound 1 µM, first compound 0.00949 µM
[22] = second compound 1 µM, first compound 0.03 µM
[23] = second compound 1 µM, first compound 0.0949 µM
[24] = second compound 1 µM, first compound 0.3 µM
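For viability, T/C in this document: 100% = DMSO vehicle wells.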

In the case of CCc1c2c(nc3ccc(O)cc13)-c1cc3c(c(=O)n1C2)COC(=O)[C@]3(O)CC + C#Cc1c(F)ccc2cc(O)cc(-c3ncc4c(N5CC6CCC(C5)N6)nc(OCC56CCCN5CC(F)C6)nc4c3F)c12, the IC50 (second compound 0.0316 µM) is reported as 0.0382 µM, the IC50 (second compound 0.1 µM) is reported as 0.0359 µM and the IC50 (second compound 0.316 µM) is reported as 0.0476 µM. The IC50 (second compound 1 µM) was 0.0349 µM, the IC50 (second compound 3.16 µM) was 0.0322 µM and the IC50 (second compound 10 µM) was less than 0.000949 µM. The viability, T/C [1] was 98.4%, the viability, T/C [2] was 90.5% and the viability, T/C [3] was 72.3%. For the same compound, the viability, T/C [4] was 48.3%, the viability, T/C [5] was 41.7% and the viability, T/C [6] was 19.7%. The viability, T/C [7] was 92.4%, the viability, T/C [8] was 91.1% and the viability, T/C [9] was 77.6%. It also gave a viability, T/C [10] of 49.8%, a viability, T/C [11] of 36.4% and a viability, T/C [12] of 20.1%. It also gave a viability, T/C [13] of 85.3%, a viability, T/C [14] of 77.7% and a viability, T/C [15] of 81.5%. It also gave a viability, T/C [16] of 51.7%, a viability, T/C [17] of 41.4% and a viability, T/C [18] of 20.2%. It also gave a viability, T/C [19] of 65.5%, a viability, T/C [20] of 61.7% and a viability, T/C [21] of 61.7%. It also gave a viability, T/C [22] of 50.9%, a viability, T/C [23] of 38.4% and a viability, T/C [24] of 25.3%. The viability, T/C (second compound 3.16 µM, first compound 0.000949 µM) was 58.5%, the viability, T/C (second compound 3.16 µM, first compound 0.003 µM) was 60.3% and the viability, T/C (second compound 3.16 µM, first compound 0.00949 µM) was 50.3%. It also gave a viability, T/C (second compound 3.16 µM, first compound 0.03 µM) of 52.7%, a viability, T/C (second compound 3.16 µM, first compound 0.0949 µM) of 30.4% and a viability, T/C (second compound 3.16 µM, first compound 0.3 µM) of 17%. For the same compound, the viability, T/C (second compound 10 µM, first compound 0.000949 µM) was 41%, the viability, T/C (second compound 10 µM, first compound 0.003 µM) was 49.4% and the viability, T/C (second compound 10 µM, first compound 0.00949 µM) was 46.9%. It also gave a viability, T/C (second compound 10 µM, first compound 0.03 µM) of 33.9%, a viability, T/C (second compound 10 µM, first compound 0.0949 µM) of 30.4% and a viability, T/C (second compound 10 µM, first compound 0.3 µM) of 15.7%.
CC1(C)CCC(Nc2ncc(C(F)(F)F)c(-c3c[nH]c4c(P(C)(C)=O)c(C#N)ccc34)n2)CN1 (centres undefined) + C=CC(=O)N1CCN(c2nc(OCC3CCCN3C)nc3c(F)c(-c4nc(N)cc(C)c4C(F)(F)F)c(Cl)cc23)C(C)C1 gave an IC50 (second compound 0.00316 µM) greater than 0.3 µM, an IC50 (second compound 0.01 µM) greater than 0.3 µM and an IC50 (second compound 0.0316 µM) greater than 0.3 µM. For the same compound, the IC50 (second compound 0.1 µM) was greater than 0.3 µM, the IC50 (second compound 0.316 µM) was greater than 0.3 µM and the IC50 (second compound 1 µM) was greater than 0.3 µM. It also gave a viability, T/C (second compound 0.00316 µM, first compound 0.000949 µM) of 84.1%, a viability, T/C (second compound 0.00316 µM, first compound 0.003 µM) of 76.8% and a viability, T/C (second compound 0.00316 µM, first compound 0.00949 µM) of 63.5%. For the same compound, the viability, T/C (second compound 0.00316 µM, first compound 0.03 µM) was 62.8%, the viability, T/C (second compound 0.00316 µM, first compound 0.0949 µM) was 57% and the viability, T/C (second compound 0.00316 µM, first compound 0.3 µM) was 57.3%. The viability, T/C (second compound 0.01 µM, first compound 0.000949 µM) was 88.5%, the viability, T/C (second compound 0.01 µM, first compound 0.003 µM) was 78.8% and the viability, T/C (second compound 0.01 µM, first compound 0.00949 µM) was 67%. The viability, T/C (second compound 0.01 µM, first compound 0.03 µM) was 52.9%, the viability, T/C (second compound 0.01 µM, first compound 0.0949 µM) was 58.7% and the viability, T/C (second compound 0.01 µM, first compound 0.3 µM) was 62%. The viability, T/C [1] was 94%, the viability, T/C [2] was 71.4% and the viability, T/C [3] was 68.8%. For the same compound, the viability, T/C [4] was 53.2%, the viability, T/C [5] was 54.7% and the viability, T/C [6] was 62.1%. It also gave a viability, T/C [7] of 82.3%, a viability, T/C [8] of 77.1% and a viability, T/C [9] of 55.9%. For the same compound, the viability, T/C [10] was 52.9%, the viability, T/C [11] was 58.4% and the viability, T/C [12] was 65.3%. The viability, T/C [13] was 98.4%, the viability, T/C [14] was 78.5% and the viability, T/C [15] was 62.2%. For the same compound, the viability, T/C [16] was 62%, the viability, T/C [17] was 58.8% and the viability, T/C [18] was 67.3%. It also gave a viability, T/C [19] of 84.8%, a viability, T/C [20] of 77.8% and a viability, T/C [21] of 64.5%. The viability, T/C [22] was 57.4%, the viability, T/C [23] was 66.1% and the viability, T/C [24] was 59.9%.
